Experimental data published in PubChem BioAssay (NCI).
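Where inhibition never reached the appropriate level, the endpoint shown equals the highest concentration tested. Otherwise, values were interpolated linearly from a five-concentration, 48-hour dose response in 96-well plates. GI50: concentration for 50% inhibition of growth. TGI is the concentration that stops growth completely.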

The molecules below were run on SK-MEL-28 melanoma (assay: NCI-60 cell line screen, 48 h).
`COc1ccc(CNc2c3ccccc3nc3ccccc23)cc1OC` was tested, and the GI50 was 3.14 µM and the TGI was 10.8 µM.
Molecule `CN(C)c1ccc2nc3ccc(=O)cc-3sc2c1` has a GI50 of 4.6 µM and a TGI of 27.1 µM.
In the case of `CC(=O)c1c(CBr)n([O-])c2ccccc2[n+]1=O`, the GI50 is reported as 13 µM and the TGI is reported as 27.7 µM.
In the case of `c1ccc2c3ccn4cc5c(cc4c-3nc2c1)CCCC5`, the GI50 is reported as 2.38 µM and the TGI is reported as 11.7 µM.
With `OCCCCC#Cc1ccccc1C#Cc1cccc(O)c1` the GI50 was 14.2 µM and the TGI was 28.2 µM.
`O=C(N/N=C\c1cc(Br)ccc1O)c1ccncc1` gave a GI50 of 3.52 µM and a TGI greater than 100 µM.
In the case of `COc1ccccc1/C=C/c1cnccn1`, the TGI is reported as greater than 10 µM.
Work on `CCN(CC)CC(C)(C)C(=O)/C=C/c1ccc(Cl)c(Cl)c1` yielded a GI50 of 1.57 µM and a TGI of 3.08 µM.
For `COc1cc2c(cc1OC)C13CCN4CC5=CCOC6CC(=O)N2C1C6C5CC43O` (stereo not given), the TGI was greater than 100 µM.
`CN(C)Cc1c[nH]c2c1C(=O)c1c(c(O)c3ccccc3c1O)C2=O` was tested, and the GI50 was 27.4 µM and the TGI was 58 µM.

What follows are molecules tested on SK-OV-3 ovarian (assay: NCI-60 cell line screen, 48 h).
Work on `N#CC1(C2SCCS2=O)C2=C(C(=O)c3ccccc3C2=O)N2CCCC21` (stereo not given) yielded a TGI of 51.7 µM.
Molecule `Cc1n(Cc2ccc3ccccc3c2)cc[n+]1Cc1ccc2ccccc2c1` has a GI50 of 1.81 µM and a TGI of 7.38 µM.
`O=C(O)Cc1c(O)ccc2ccccc12` showed a TGI greater than 100 µM.
`O=C1/C(=C\c2cccn2Cc2ccccc2)c2ccccc2N1c1c(Cl)cccc1Cl` gave a GI50 greater than 100 µM and a TGI greater than 100 µM.
For `Cc1sc2nc(NCCc3c[nH]c4ccc(Cl)cc34)[nH]c(=O)c2c1C`, the GI50 was 3.22 µM and the TGI was 14.5 µM.
`CSC1(CC(=O)N(C)C)C(=O)Nc2ccccc21` (stereo not given) was tested, and the TGI was greater than 100 µM.
`O=C(O)c1c(-c2nccc3ccccc23)[nH]c(-c2ccccc2)c1S(=O)(=O)O` gave a TGI greater than 100 µM.
Work on `COc1ccc(/C=c2/sc3n(c2=O)C(c2ccc(OC)c(OC)c2)C2=C(N=3)c3cc(F)ccc3OC2)cc1` (stereo not given) yielded a GI50 greater than 57 µM and a TGI greater than 100 µM.
For `O=C(O)c1cc(O)c2c(c1)C(C1c3cc(C(=O)O)cc(O)c3C(=O)c3c(OC4OC(CO)C(O)C(O)C4O)cccc31)c1cccc(OC3OC(CO)C(O)C(O)C3O)c1C2=O` (stereo not given), the GI50 was greater than 100 µM and the TGI was greater than 100 µM.
Work on `O=C(CN(C1CCCCC1)C1CCCCC1)Nc1ccc(S(=O)(=O)c2ccc(NC(=O)CN(C3CCCCC3)C3CCCCC3)cc2)cc1` yielded a GI50 of 8.64 µM and a TGI of 21.6 µM.
`Cc1c[n+](Cc2ccc3ccccc3c2)cn1Cc1ccc2ccccc2c1` showed a GI50 of 2.16 µM and a TGI of 6.12 µM.
`Nc1nc(Br)nc2c1ncn2C1CC(O)C(CO)O1` (stereo not given) was tested, and the GI50 was greater than 100 µM and the TGI was greater than 100 µM.
`Nc1nc(Nc2ccccc2)c2ncn(Cc3cc4c(cc3Br)OCO4)c2n1` gave a GI50 of 0.0373 µM and a TGI of 2.36 µM.
For `CCOC(=O)N1CCN(C(=O)c2ccc(C(F)(F)F)nc2Nc2cc(Cl)ccc2C)CC1`, the GI50 was greater than 100 µM and the TGI was greater than 100 µM.
`Cc1ccc(Nc2nc(N)c(C(=O)c3ccc(C#N)cc3)s2)cc1` gave a GI50 of 0.449 µM and a TGI of 46 µM.
`O=C1c2ccn(CCCCNC(CO)(CO)CO)c2C(=O)c2c1c(O)c1ccccc1c2O` gave a GI50 of 7.81 µM and a TGI greater than 47.8 µM.
Work on `COc1ccc(-c2cc(-c3cccn3C)c(C#N)c(N)n2)cc1OC` yielded a GI50 greater than 100 µM and a TGI greater than 100 µM.
In the case of `CN1CCc2c(Sc3ccc(C(=O)NO)cc3)c3ccccc3n2C1`, the GI50 is reported as 2.08 µM and the TGI is reported as 5.67 µM.
`COc1ccc(CNc2c3ccccc3nc3ccccc23)cc1OC` gave a GI50 of 2.44 µM and a TGI of 8.33 µM.
For `CN(C)c1ccc2nc3ccc(=O)cc-3sc2c1`, the GI50 was 6.02 µM and the TGI was greater than 100 µM.
With `CC(=O)c1c(CBr)n([O-])c2ccccc2[n+]1=O` the GI50 was 22.9 µM and the TGI was 71 µM.
For `c1ccc2c3ccn4cc5c(cc4c-3nc2c1)CCCC5`, the GI50 was 3.41 µM and the TGI was 10.5 µM.
Molecule `OCCCCC#Cc1ccccc1C#Cc1cccc(O)c1` has a GI50 of 19.1 µM and a TGI of 43.3 µM.
